In PubChem BioAssay AID493002 (Sanford-Burnham Center for Chemical Genomics, 2010):
Active and inactive are the calls of the source. The rule behind the calls is not given here.

Tested on: S. cerevisiae tim23-1 mutant growth, luminescence
Assay: potency against tim23-1 yeast growth – luminescence, uHTS hits, dose response (AID 493002);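 note: yeast grown roughly 22 hours at 25 °C before the luminescence read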

| SMILES | IC50 |
| --- | --- |
| COc1ccc(CCn2c(C(C)C)nc3oc4ccccc4c(=O)c3c2=O)cc1 | 14.2 µM |
| Oc1ccc(-c2csc(Nc3ccccn3)n2)c(O)c1 | 24.9 µM |
| Cc1csc2nc(O)c(C(=O)NC3CCCCC3)c(=O)n12 | 8.51 µM |
| CCOC(=O)c1c(NC(=O)CSc2nnnn2-c2ccc(OC)cc2)sc(C)c1C | 4.12 µM |
| C(=C\c1ccccc1)/C=N/Nc1nc2ccccc2[nH]1 | 8.63 µM |
| Cc1ccn2cc(-c3ccc(NC(=O)c4ccco4)cc3)nc2c1 | 17.6 µM |
| O=C(N/N=C/C(Br)=C/c1ccccc1)c1cccs1 | 6.9 µM |
| O=C1NN=C(c2ccc(Cl)cc2)CC1c1cccc(Br)c1 (stereo not drawn) | > 100 µM (inactive) |
| O=C(CC(=O)c1cc(Cl)ccc1O)c1ccccc1 | 7.07 µM |
| COC(=O)c1ccc(NC(=O)CSc2nc(=O)n3cccc(C)c3n2)cc1 | 22.7 µM |
| O=C(Nc1ccc2oc(Cc3ccc(Cl)cc3)nc2c1)c1cccnc1 | 14.2 µM |
| CC1=NN(c2ccccc2)C(=O)/C1=C/c1c(O)n(-c2ccc(F)c(Cl)c2)[nH]c1=O | 24.3 µM |
| N#C/C(N)=C(/C#N)N=Cc1cccc(Cl)c1 | 8.99 µM |
| CCCCCCn1c(=O)c(-c2ccccc2)c(O)c2ccccc21 | 8.95 µM |
| COc1ccc(CCN(/C=C2\Sc3ccccc3C2=O)C(C)=O)cc1OC | 14 µM |
| Nc1c(C(=O)Nc2ccc3c(c2)OCCO3)nnn1Cc1ccccc1Cl | 12.4 µM |
| O=C(c1cccnc1)C1Cc2ccccc2C1=O (stereo not drawn) | 9.94 µM |
| CC1CCN(c2ccc(-c3cccs3)nn2)CC1 | 6.21 µM |
| Cc1ccc2nc(N3C(=O)CNC3=S)sc2c1 | 3.73 µM |
| O=C(Nc1ccc(OC(F)(F)F)cc1)N1CCN(c2ccnc3cc(Cl)ccc23)CC1 | 10.5 µM |
| Cc1cccc(C(=O)OCC(=O)NC23CC4CC(CC(C4)C2)C3)c1O | 12.5 µM |
| O=C(Nc1cc(-c2ccccc2)[nH]n1)c1ccccc1 | 4.2 µM |
| CCCn1nnc(NC(=O)c2sc3ccccc3c2Cl)n1 | 20.7 µM |
| Cc1ccc(Nc2nc(-c3sc(N)nc3C)cs2)cc1 | 13.4 µM |
| CN=c1scc(-c2cccs2)n1/N=C/c1ccc(O)c(O)c1O | 10.5 µM |

| SMILES | IC50 |
| --- | --- |
| Cc1ccc(NC(=O)CN2C(=O)CN=C(c3ccccc3)c3cc(Cl)ccc32)cc1 | 13.1 µM |
| Cc1ccc(Nc2nc3ccccc3s2)c(C)c1 | 11.1 µM |
| O=C(NCc1ccc2c(c1)OCO2)c1c(O)nc2sccn2c1=O | 6.15 µM |
| Oc1ccc(-c2nccc(-c3cccs3)n2)cc1 | 20.2 µM |
| COc1ccc(NCc2ccc([N+](=O)[O-])s2)cc1 | 6.99 µM |
| O=C(N/N=C/c1cccc(F)c1)c1csc2c1CCCC2 | 11.4 µM |
| COc1ccc(C2=NNC(c3cccs3)=Nc3ccc(OC)cc32)cc1 | 11.1 µM |
| C[C@@]12C(=O)Nc3ccc(Cl)cc3C(=O)N1[C@H]1c3ccccc3OC[C@@H]1[C@@H]2c1ccccc1 | 3.38 µM |
| Cc1ccc(-c2nnc(N3CCC(C)CC3)c3ccccc23)cc1 | 13.7 µM |
| COc1ccc(C(=O)CC(=O)c2ccccc2O)cc1 | 15.1 µM |
| Nc1nc2c(s1)CCc1c-2cnn1-c1ccccc1 | 12.4 µM |
| O=C(Nc1ccc2oc(-c3ccccc3)nc2c1)c1cccs1 | 0.39 µM |
| Cc1occc1C(=O)N/N=C/C(Br)=C\c1ccccc1 | 13.7 µM |
| CN(C)c1c2ccccc2nc2c(F)c(F)c(F)c(F)c12 | 16.6 µM |
| Cc1ccc2occ(/C=N/NC(=O)c3ccccc3Br)c(=O)c2c1 | 9.7 µM |
| CSc1nnc(C)c(/C=C/NOCc2ccc(Cl)cc2)n1 | 6.13 µM |
| O=C1c2ccccc2-c2n[nH]c3cccc1c23 | 6.31 µM |
| C/C=C/c1ccc(OCCOc2cc(C=O)ccc2OC)c(OC)c1 | 8.44 µM |
| COc1ccc(-c2cc(-c3ccccc3O)[nH]n2)cc1 | 9.38 µM |
| COc1ccc(C(C[N+](=O)[O-])c2c(-c3ccccc3)cc3ccccn23)cc1OC (stereo not drawn) | 12.7 µM |
| Cc1[nH][nH]c(=O)c1C(c1ccc(-c2ccc(Cl)c(Cl)c2)o1)c1c(C)[nH][nH]c1=O | 14 µM |
| Cc1nc(-c2ccc(NC(=O)C3CC3)cc2)cs1 | 20.2 µM |
| Cc1ccc(Nc2nc(Cl)nc(NC(C)(C)C)n2)cc1 | 16 µM |
| OCCCNc1cc(-c2ccccc2)nc2cc(-c3ccc(F)cc3)nn12 | 33.3 µM |
| COc1ccc(NC(=O)Nc2cccc3cccnc23)cc1 | 40.1 µM |

| SMILES | IC50 |
| --- | --- |
| O=C(N/N=C/c1coc2ccc(Cl)cc2c1=O)c1ccncc1 | 22.3 µM |
| O=C1NC(=S)SC1=C1CCCCCC1 | 7.78 µM |
| O=C(Nc1nc(-c2cccs2)c(-c2ccccc2)s1)c1ccco1 | 11.5 µM |
| CCCCCOC(=O)Cc1c(C)nc(-c2ccccc2)[nH]c1=O | 13.2 µM |
| O=C(/C=C/c1ccccc1)Oc1cccc2cccnc12 | 21.3 µM |
| O=C(Oc1cccc2c(O)cccc12)c1ccccc1 | 8.69 µM |
| COc1ccc2c(=O)c3c(=O)n(Cc4ccco4)c(-c4ccccc4)nc3oc2c1 | 17.5 µM |
| Cc1ccc(Nc2cc(C)c3ccc(O)cc3n2)cc1C | 11.1 µM |
| Cc1ccc(Nc2nc(-c3cccnc3)nc3ccccc23)cc1 | 5.21 µM |
| CCOC(=O)NNc1ccc2nonc2c1[N+](=O)[O-] | 6.6 µM |
| Cc1oc2cc(O)cc(O)c2c(=O)c1-c1ccc2c(c1)OCCCO2 | 8.84 µM |
| O=C(N/N=C/c1ccc(Br)s1)c1c[nH]c2ccccc12 | 14.9 µM |
| O=C(Nc1nsc(-c2ccccc2)n1)c1cccs1 | 8.04 µM |
| COc1cccc(CNn2c(-c3cccc(C)c3)nc3ccccc3c2=O)c1O | 10.1 µM |
| O=C(Nc1cn(-c2ccccc2)nc1-c1cccs1)c1ccco1 | 29 µM |
| O=[N+]([O-])c1ccc(N/N=C/c2cccc(O)c2)cc1 | 6.99 µM |
| CCCc1nc2c(c(=O)c3ccccc3n2C)c(=O)n1C1CCCCCC1 | 9.44 µM |
| N=C1/C(=C\c2coc3ccccc3c2=O)C(=O)N=C2SC=CN12 | 8.9 µM |
| N#C/C(=C\c1ccc(Cl)cc1)C(=O)NC1CC1 | 7.09 µM |
| COc1ccc(C(=O)N2CCc3ccc(NC(=O)c4ccccn4)cc3C2)cc1F | 23.8 µM |
| O=C(Nc1ccccc1)C1C(c2ccccc2)C1(Cl)Cl (stereo not drawn) | 14.9 µM |
| CCOC(=O)c1c(C)oc2c(F)c(F)c(F)c(F)c2c1=O | 13.1 µM |
| CCOC(=O)c1ccc(NC(=O)/C=C/c2cccs2)cc1 | 26.6 µM |
| O=C(N/N=C/C(Cl)=C\c1ccccc1)c1cccs1 | 4.85 µM |
| O=c1c2ccccc2nc2c3ccccc3cnn12 | 15 µM |

| SMILES | IC50 |
| --- | --- |
| Brc1ccc(-n2cnc(-c3ccccc3)c2)cc1 | 12.5 µM |
| Cc1ccc(-c2nnc(NC3CCCC3)s2)cc1 | 26.6 µM |
| O=C(Nc1ccc(Nc2ccccc2)cc1)c1ccccc1F | 21.9 µM |
| O=C(Nc1ccc(-c2ccc(N3CCCCC3)nn2)cc1)c1ccco1 | 10 µM |
| O=C(Nc1cccc(NC(=O)c2ccco2)c1)c1cccc(Br)c1 | 13.1 µM |
| CC1(C)CC(n2c(NCCO)nc3c(c2=O)C2(CCCC2)Cc2ccccc2-3)CCO1 (stereo not drawn) | 8.62 µM |
| COc1cc2c(cc1OC)/C(=C/c1ccc(Cl)cc1)C(=O)OC2 | 8.86 µM |
| COc1ccc(C(=O)N/N=C\c2coc3ccc(Cl)cc3c2=O)cc1 | 8.27 µM |
| O=C(CS(=O)(=O)c1ccccc1)Nc1nc(-c2ccc(F)cc2)cs1 | 14.2 µM |
| Cc1[nH][nH]c(=O)c1C(c1ccc(-c2ccc(Cl)cc2)o1)c1c(C)[nH][nH]c1=O | 12.8 µM |
| CCNc1nc(N)c(C(=O)C23CC4CC(CC(C4)C2)C3)s1 | 12.4 µM |
| N=c1c2c(-c3ccccc3)c(-c3ccccc3)n(Cc3ccco3)c2ncn1Cc1ccccc1 | 10.9 µM |
| CCCN1C(=O)C(=O)c2cc(Cl)ccc21 | 19.1 µM |
| CC1(C)CC2CC(C)(CN2C(=O)c2cc(-c3ccc(O)cc3)on2)C1 (stereo not drawn) | 15.3 µM |
| COc1ccc(-c2cc(-c3ccccc3)n[nH]2)c(O)c1 | 18.3 µM |
| O=C(Nc1nccs1)c1ccc(Cl)s1 | 7.48 µM |
| Cc1csc2nc(O)c(C(=O)NC3CCCCC3C)c(=O)n12 (stereo not drawn) | 12.2 µM |
| CCCCS/C(N)=N/N=C/c1ccccc1O | 18.2 µM |
| CC(C)(C)N1C(=O)c2ccc(C(=O)Nc3nccs3)cc2C1=O | 20.3 µM |
| Cc1ccc2oc(C(Cl)(Cl)Cl)cc(=O)c2c1 | 4.38 µM |
| CC(=O)c1sc(-c2ccc(Cl)cc2)cc1N | 18.8 µM |
| Cn1c(/C(C#N)=C/c2ccncc2)nc2ccccc21 | 16.3 µM |
| Cc1nc2ccccc2n1/N=C/c1ccc([N+](=O)[O-])s1 | 1.58 µM |
| CC(C)CN1C(=O)c2ccc(NC(=O)c3ccco3)cc2C1=O | 20.2 µM |
| O=C(Nc1ccc(Cl)cc1)c1cccs1 | 11 µM |

| SMILES | IC50 |
| --- | --- |
| CCC(C)C(=O)Nc1nc2ccc(OC)cc2s1 (stereo not drawn) | 18.1 µM |
| COc1ccc(C(=O)Nc2nc3ccccc3s2)c(OC)c1 | 5.92 µM |
| C#CCOCCOCCOCCNc1nc(N2CCN(C(=O)CCCCCCCCCCNC(=O)[C@H](CCCCN)n3cc(CCO)nn3)CC2)nc(N2CCN(C(=O)CCCCCCCCCCNC(=O)[C@H](CCCCN)n3cc(C[C@@H](C)CC)nn3)CC2)n1 | 17.1 µM |
| Cc1[nH][nH]c(=O)c1C(c1ccc(-c2ccc(F)cc2)o1)c1c(C)[nH][nH]c1=O | 7.74 µM |
| COc1cc(C2CC(c3cccs3)=NN2C(=O)CCl)ccc1OC(F)F (stereo not drawn) | 21.9 µM |
| Cc1ccc(S(=O)(=O)N2C(=O)[C@@H]3Cc4ccccc4CN3C2=O)cc1 | 30.5 µM |
| CCc1sc(C(=O)Nc2nccs2)cc1C | 16 µM |
| O=C(CSc1cccc[n+]1[O-])CSc1cccc[n+]1[O-] | 5.83 µM |
| Cc1ccc2occ(/C=N/NC(=O)c3ccncc3)c(=O)c2c1 | 21.6 µM |
| CC(=O)Nc1cccc(-c2cc(-c3c(Cl)cccc3Cl)no2)c1 | 11.1 µM |
| CCOC(=O)c1c(C=O)c2sc(C)cc2n1C | 18 µM |
| CC(C)OC(=O)c1cccnc1SCc1cc(=O)n2ccccc2n1 | 9.68 µM |
| CO/C(N)=C(\C#N)N=Cc1ccccc1Cl | 8.6 µM |
| Cc1ccc(-c2nc3ccccc3[nH]2)s1 | 6.19 µM |
| Cc1ccccc1C(=O)Oc1cccc2c(O)cccc12 | 8.53 µM |
| O=Cc1cnc2ccccc2c1-c1ccccc1 | 6.97 µM |
| CC[C@@]1(c2ccccc2OC)ON(c2ccccc2C(F)(F)F)C1=O | 5.91 µM |
| Cc1cnc(NC(=O)c2sc(Nc3ccccc3)nc2N)o1 | 9.39 µM |
| Cc1ccc(-c2nc3n(n2)Cc2ccccc2-3)cc1 | 15.4 µM |
| O=C(Nc1ccc2nc(-c3ccc(Br)o3)[nH]c2c1)c1cccs1 | 1.35 µM |
| Cc1ccc(OCc2cc(C(=O)NCc3cnn(-c4cccc(F)c4)c3)no2)cn1 | 14.8 µM |
| CCCCSC1=C(C#N)C(c2ccccc2C)CC(=O)N1 (stereo not drawn) | 13.7 µM |
| O=c1c2ccccc2nc(-c2ccc([N+](=O)[O-])cc2)n1O | 7.67 µM |
